From patent US20150352108A1, “AMINO-PYRIMIDINE COMPOUNDS AS INHIBITORS OF TBK1 AND/OR IKK EPSILON” (Alzheimer's Institute of America, priority 2009, published 2015) come the findings set out here.

pIC50: −log10 of the molar value. Where two headings read alike, the source gives them in different places.

For experiment [1], the target named is T1, IKKε (Homo sapiens, UniProt Q14164).
T1 construct: His-tag; made in house; host or cells: Sf9 insect cells
T1 sequence (Q14164 1-716): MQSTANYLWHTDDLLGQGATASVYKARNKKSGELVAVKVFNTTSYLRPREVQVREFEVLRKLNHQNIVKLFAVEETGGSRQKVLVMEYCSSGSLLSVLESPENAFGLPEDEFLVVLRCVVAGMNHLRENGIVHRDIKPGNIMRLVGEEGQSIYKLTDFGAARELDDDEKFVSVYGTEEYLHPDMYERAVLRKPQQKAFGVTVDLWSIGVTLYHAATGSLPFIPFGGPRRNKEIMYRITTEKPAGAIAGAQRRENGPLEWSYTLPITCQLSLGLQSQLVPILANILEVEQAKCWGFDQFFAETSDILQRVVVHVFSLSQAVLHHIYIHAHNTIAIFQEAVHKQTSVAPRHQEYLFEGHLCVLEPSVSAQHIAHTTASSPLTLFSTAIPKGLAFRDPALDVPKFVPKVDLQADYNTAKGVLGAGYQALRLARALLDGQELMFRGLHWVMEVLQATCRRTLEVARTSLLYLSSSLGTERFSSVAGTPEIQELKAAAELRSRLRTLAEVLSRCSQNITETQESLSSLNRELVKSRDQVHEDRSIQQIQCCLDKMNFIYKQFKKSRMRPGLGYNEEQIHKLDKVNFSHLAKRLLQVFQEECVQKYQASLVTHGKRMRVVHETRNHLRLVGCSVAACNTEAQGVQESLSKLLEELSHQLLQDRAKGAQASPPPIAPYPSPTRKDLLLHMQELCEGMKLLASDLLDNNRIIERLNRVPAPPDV
Nature of the experiment: In-vitro IKKε kinase assay ([γ33]ATP filter-plate). The experiment is classed as biochemical. The essentials:
(§1)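 Phosphorylation of casein or myelin basic protein was counted by P-81 filter capture after 30-45 min reactions stopped with phosphoric acid, with counts normalized to DMSO after background subtraction. ATP was twice Km: 60 μM for TBK1 and 32 μM for IKKε, plus [γ33]ATP. Sf9-expressed His-tag enzymes were used at normal/sensitized levels of 0.1/0.02 μg/ml (TBK1) and 0.1/0.015 μg/ml (IKKε).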

Experiment [2] concerns the target T2, TBK1 (Homo sapiens, UniProt Q9UHD2).
T2 construct: His-tag; made in house; host or cells: Sf9 insect cells
T2 sequence (Q9UHD2 1-729): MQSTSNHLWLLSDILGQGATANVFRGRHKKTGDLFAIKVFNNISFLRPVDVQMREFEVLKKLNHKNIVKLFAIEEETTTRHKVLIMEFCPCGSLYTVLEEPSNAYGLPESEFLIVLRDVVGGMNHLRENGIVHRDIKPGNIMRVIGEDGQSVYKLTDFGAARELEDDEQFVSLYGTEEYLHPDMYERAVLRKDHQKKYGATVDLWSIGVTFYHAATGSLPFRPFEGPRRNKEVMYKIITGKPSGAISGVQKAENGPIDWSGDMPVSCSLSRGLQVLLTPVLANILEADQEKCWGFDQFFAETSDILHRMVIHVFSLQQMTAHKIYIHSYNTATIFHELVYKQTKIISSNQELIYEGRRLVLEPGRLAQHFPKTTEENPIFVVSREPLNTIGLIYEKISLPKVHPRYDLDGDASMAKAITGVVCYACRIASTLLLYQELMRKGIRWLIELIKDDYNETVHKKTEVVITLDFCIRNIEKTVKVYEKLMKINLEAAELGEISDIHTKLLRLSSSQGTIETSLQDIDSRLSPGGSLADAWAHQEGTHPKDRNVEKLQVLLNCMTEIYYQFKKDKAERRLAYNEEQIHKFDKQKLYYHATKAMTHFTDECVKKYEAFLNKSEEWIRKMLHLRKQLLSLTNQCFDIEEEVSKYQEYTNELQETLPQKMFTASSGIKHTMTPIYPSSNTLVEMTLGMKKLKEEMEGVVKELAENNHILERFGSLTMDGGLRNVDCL
Kind of experiment: In-vitro TBK1 kinase assay ([γ33]ATP filter-plate). The experiment is classed as biochemical. The essentials:
as §1

Experiment [3] has as its system IKKε-mediated phosphorylation of IRF3. Nature of the experiment: In-situ phosphorylation of IRF3 (pIRF3 Ser396 ELISA) in HEK293T cells cotransfected with IRF3 and IKKε. The experiment is classed as cell-based. As to conditions: Homo sapiens, HEK-293T. The essentials:
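Cells for the IRF7 Western blots carried IRF7 and TBK1 plasmids, were seeded at 150,000/well, exposed to compound overnight and probed for pSer477/Ser479 IRF7. The ELISA readout used IRF3 + IKKε-cotransfected HEK293T at 20,000/well with 20 h treatment, quantifying pSer396 IRF3 relative to DMSO, plus a parallel CellTiter-Glo viability check.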

Setting [4] is: text bins, read-out: IC50 for inhibition of the kinase activity of IKKε.
[5] abbreviates: text bins, read-out: IC50 for inhibition of the kinase activity of TBK1.
The mark [6] stands for this setting: HEK293T cells, 20 hours, text bins, read-out: IC50 for inhibition of the in-situ IKKε-mediated phosphorylation of IRF3.
The mark [7] stands for this setting: HEK293T cells in culture, Table 3, read-out: pIRF3 ELISA IC50.

Turning to `COc1ccc(-c2ccnc(Nc3ccc(N4CCOCC4)c(OC)c3)n2)cc1C#N` [Example 157, 2-Methoxy-5-(2-{[3-methoxy-4-(morpholin-4-yl)phenyl]amino}pyrimidin-4-yl)benzonitrile], the pIC50 was greater than 8.30 in experiment [1] (setting [4]), greater than 8.00 in experiment [2] (setting [5]) and 6.30 to 6.60 in experiment [3] (setting [6]).

`COc1cc(Nc2nccc(-c3ccc(OC4CCOCC4)c(C#N)c3)n2)ccc1O` [Example 262, 5-{2-[(4-hydroxy-3-methoxyphenyl)amino]pyrimidin-4-yl}-2-(tetrahydro-2H-pyran-4-yloxy)benzonitrile]: the negative logarithm of the IC50 (pIC50) in experiment [1] (setting [4]) was greater than 8.30; in experiment [2] (setting [5]), greater than 8.00; in experiment [3] (setting [6]), 6.30 to 6.60.

On to `COCCNC(=O)c1ccc(Nc2nccc(-c3ccc(NC(=O)C4CC4)c(C#N)c3)n2)cc1` [compound 537], for which the pIC50 in experiment [1] (setting [4]) was 7.30 to 8.30; in experiment [2] (setting [5]) it was 7.00 to 8.00; in experiment [3] (setting [6]) it was 6.60 to 7.00.

Consider `N#Cc1cc(-c2ccnc(Nc3ccc(N4CCOCC4)cc3)n2)ccc1NCc1ccccn1` [Example 64, 5-(2-{[4-(Morpholin-4-yl)phenyl]amino}pyrimidin-4-yl)-2-[(pyridin-2-ylmethyl)amino] benzonitrile], for which the results for the pIC50 in experiment [1] (setting [4]), in experiment [2] (setting [5]) and in experiment [3] (setting [6]) were 7.30 to 8.30, greater than 8.00 and 6.30 to 6.60, respectively.

As to `COCCNCc1ccc(Nc2nccc(-c3ccc(OCC(C)C)c(C#N)c3)n2)cc1` [compound 651], the results for the pIC50 in experiment [1] (setting [4]), in experiment [2] (setting [5]) and in experiment [3] (setting [6]) were greater than 8.30, greater than 8.00 and greater than 7.00, respectively.

Take `CC(C)N1CCN(CCOc2cc(Nc3nccc(-c4ccc(OCC5CC5)c(C#N)c4)n3)ccc2F)CC1` [compound 574, 2-(Cyclopropylmethoxy)-5-{2-[(4-fluoro-3-{2-[4-(propan-2-yl)piperazin-1-yl]ethoxy}phenyl)amino]pyrimidin-4-yl}benzonitrile]: the pIC50 in experiment [1] (setting [4]) is greater than 8.30; in experiment [2] (setting [5]), greater than 8.00; in experiment [3] (setting [6]), 6.60 to 7.00.

As for `CC1(COc2ccc(-c3ccnc(Nc4ccc(N5CCN(CCO)CC5)cc4)n3)cc2C#N)COC1` [compound 437, 5-[2-({4-[4-(2-Hydroxyethyl)piperazin-1-yl]phenyl}amino)pyrimidin-4-yl]-2-[(3-methyloxetan-3-yl)methoxy] benzonitrile], the pIC50 in experiment [1] (setting [4]) was greater than 8.30; in experiment [2] (setting [5]), greater than 8.00; in experiment [3] (setting [6]), 6.60 to 7.00.

With `COc1ccc(Nc2nccc(-c3ccc(OC4CCOCC4)c(C#N)c3)n2)cc1OCC(N)=O` [Example 132, 2-[5-({4-[3-cyano-4-(tetrahydro-2H-pyran-4-yloxy)phenyl]pyrimidin-2-yl}amino)-2-methoxyphenoxy] acetamide], the pIC50 in experiment [1] (setting [4]) was greater than 8.30; in experiment [2] (setting [5]), greater than 8.00; in experiment [3] (setting [6]), 6.30 to 6.60.

Take `COc1cc(Nc2nccc(-c3ccc(OC4CCOCC4)c(C#N)c3)n2)ccc1OCCCS(=O)(=O)N1CCN(C)CC1` [Example 25, 5-{2-[(3-methoxy-4-{3-[(4-methylpiperazin-1-yl)sulfonyl]propoxy}phenyl)amino]pyrimidin-4-yl}-2-(tetrahydro-2H-pyran-4-yloxy)benzonitrile]: the pIC50 in experiment [1] (setting [4]) was greater than 8.30; in experiment [2] (setting [5]), greater than 8.00; in experiment [3] (setting [6]) it was 6.60 to 7.00.

Turning to `COc1cc(Nc2nccc(-c3ccc(OC4CCOCC4)c(C#N)c3)n2)ccc1C(=O)NCCN(C)C` [Example 2, 4-({4-[3-cyano-4-(tetrahydero-2H-pyran-4-yloxy)phenyl]pyrimidin-2-yl}amino)-N-[2-(dimethylamino)ethyl]-2-methoxybenzamide], the negative logarithm of the IC50 (pIC50) was 8.96 in experiment [1] (Table 3, read-out: IKKε IC50); greater than 8.30 in experiment [1] (setting [4]); 9.40 in experiment [2] (Table 3, read-out: TBK1 IC50); greater than 8.00 in experiment [2] (setting [5]); 7.14 in experiment [3] (setting [7]); greater than 7.00 in experiment [3] (setting [6]).

In the case of `COc1cc(Nc2nccc(-c3ccc(OC4CCN(C(=O)CO)CC4)c(C#N)c3)n2)ccc1N1CCOCC1` [Example 59, 2-{[1-(hydroxyacetyl)piperidin-4-yl]oxy}-5-(2-{[3-methoxy-4-(morpholin-4-yl)phenyl]amino}pyrimidin-4-yl)benzonitrile], the pIC50 in experiment [1] (Table 3, read-out: IKKε IC50) was 9.70; in experiment [1] (setting [4]) it was greater than 8.30; in experiment [2] (Table 3, read-out: TBK1 IC50) it was 9.40; in experiment [2] (setting [5]) it was greater than 8.00; in experiment [3] (setting [7]), 7.79; in experiment [3] (setting [6]), greater than 7.00.

Regarding `N#Cc1cc(-c2ccnc(Nc3ccc(CN4CC(O)C4)cc3)n2)ccc1OC1CCOCC1` [compound 497, 5-[2-({4-[(3-hydroxyazetidin-1-yl)methyl]phenyl}amino)pyrimidin-4-yl]-2-(tetrahydro-2H-pyran-4-yloxy)benzonitrile], the pIC50 in experiment [1] (setting [4]) is greater than 8.30; in experiment [2] (setting [5]), greater than 8.00; in experiment [3] (setting [6]), greater than 7.00.

For the molecule `CCN(CC)CCNC(=O)c1ccc(Nc2nccc(-c3ccc(OC4CCOCC4)c(C#N)c3)n2)cc1OC` [compound 506, 4-({4-[3-cyano-4-(tetrahydro-2H-pyran-4-yloxy)phenyl]pyrimidin-2-yl}amino)-N-[2-(diethylamino)ethyl]-2-methoxybenzamide], the pIC50 is greater than 8.30 in experiment [1] (setting [4]), greater than 8.00 in experiment [2] (setting [5]) and greater than 7.00 in experiment [3] (setting [6]).

As for `COc1ccc(Nc2nccc(-c3ccc(OC4CCOCC4)c(C#N)c3)n2)cc1OCCCN1CCOCC1` [compound 529, 5-[2-({4-methoxy-3-[3-(morpholin-4-yl)propoxy]phenyl}amino)pyrimidin-4-yl]-2-(tetrahydro-2H-pyran-4-yloxy)benzonitrile], the figures for the pIC50 in experiment [1] (setting [4]), in experiment [2] (setting [5]) and in experiment [3] (setting [6]) were greater than 8.30, greater than 8.00 and greater than 7.00, respectively.

Take `CNS(=O)(=O)Cc1cccc(Nc2nccc(-c3ccc(OC4CCOCC4)c(C#N)c3)n2)c1` [compound 648, 1-[3-({4-[3-Cyano-4-(tetrahydro-2H-pyran-4-yloxy)phenyl]pyrimidin-2-yl}amino)phenyl]-N-methylmethane-sulfonamide]: the pIC50 in experiment [1] (Table 3, read-out: IKKε IC50) was 8.41; in experiment [1] (setting [4]), greater than 8.30; in experiment [2] (Table 3, read-out: TBK1 IC50) it was 9.30; in experiment [2] (setting [5]), greater than 8.00; in experiment [3] (setting [7]), 6.75; in experiment [3] (setting [6]) it was 6.60 to 7.00.

For the molecule `N#Cc1cc(-c2ccnc(Nc3ccc(F)c(OCCN)c3)n2)ccc1OCC1CC1` [compound 612, 5-(2-{[3-(2-Aminoethoxy)-4-fluorophenyl]amino}pyrimidin-4-yl)-2-(cyclopropylmethoxy) benzonitrile], the figures for the pIC50 in experiment [1] (setting [4]), in experiment [2] (setting [5]) and in experiment [3] (setting [6]) were greater than 8.30, greater than 8.00 and 6.60 to 7.00, respectively.

On to `CN(C)CCCNS(=O)(=O)c1ccc(Nc2nccc(-c3ccc(OC4CCOCC4)c(C#N)c3)n2)cc1` [Example 3, 4-({4-[3-cyano-4-(tetrahydro-2H-pyran-4-yloxy)phenyl]pyrimidin-2-yl}amino)-N-[3-(dimethylamino)propyl] benzenesulfonamide], for which the negative logarithm of the IC50 (pIC50) is 8.55 in experiment [1] (Table 3, read-out: IKKε IC50); greater than 8.30 in experiment [1] (setting [4]); 9.70 in experiment [2] (Table 3, read-out: TBK1 IC50); greater than 8.00 in experiment [2] (setting [5]); 6.55 in experiment [3] (setting [7]); 6.30 to 6.60 in experiment [3] (setting [6]).
